We go through ten cell lines from the supplement of paper PMC10307832.

What all share (assay): relative viability (nuclei count vs DMSO), 5 days (fraction); higher = more cells survive
Compound in the assay “Dabrafenib + Lapatinib”: CC(C)(C)c1nc(-c2cccc(NS(=O)(=O)c3c(F)cccc3F)c2F)c(-c2ccnc(N)n2)s1 [Dabrafenib] + CS(=O)(=O)CCNCc1ccc(-c2ccc3ncnc(Nc4ccc(OCc5cccc(F)c5)c(Cl)c4)c3c2)o1 [Lapatinib] (partner 2 µM)
In outline: (§1)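 Lung cancer cell lines were pin-tool dosed in 1536-well plates on the day after seeding, with either a lone drug or a fixed anchor-drug dose plus five library-drug doses (not always all listed) in √10 steps. Nuclei were counted on 4× images after 5 days. Relative viability is the ratio of treated-well to vehicle-well nuclei counts, with each value a median of duplicate plates.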

Compound in the assay “VX-702 + Palbociclib”: NC(=O)c1ccc(N(C(N)=O)c2c(F)cccc2F)nc1-c1ccc(F)cc1F [VX-702] + CC(=O)c1c(C)c2cnc(Nc3ccc(N4CCNCC4)cn3)nc2n(C2CCCC2)c1=O [Palbociclib] (partner 0.5 µM)
In a few lines:
as §1

Compound in the assay “VX-702 + Luminespib”: NC(=O)c1ccc(N(C(N)=O)c2c(F)cccc2F)nc1-c1ccc(F)cc1F [VX-702] + CCNC(=O)c1noc(-c2cc(C(C)C)c(O)cc2O)c1-c1ccc(CN2CCOCC2)cc1 [Luminespib] (partner 0.01 µM)
In outline:
as §1

Compound in the assay “VX-702 + Phenformin”: NC(=O)c1ccc(N(C(N)=O)c2c(F)cccc2F)nc1-c1ccc(F)cc1F [VX-702] + N=C(N)NC(=N)NCCc1ccccc1 [Phenformin] (partner 250 µM)
In outline: as §1

As for 201T, the relative viability turned out to be 1.06 with Dabrafenib + Lapatinib (first compound 0.003 µM); 1.04 with Dabrafenib + Lapatinib (first compound 0.009487 µM); 1.01 in the assay with Dabrafenib + Lapatinib (first compound 0.03 µM); 1.03 with Dabrafenib + Lapatinib (first compound 0.09487 µM); 1.09 with Dabrafenib + Lapatinib (first compound 0.3 µM); 0.349 in the assay with VX-702 + Palbociclib (first compound 0.02 µM). Further, the relative viability in the assay with VX-702 + Palbociclib (first compound 0.2 µM) worked out at 0.345; with VX-702 + Palbociclib (first compound 0.6325 µM) it was 0.347; in the assay with VX-702 + Palbociclib (first compound 2 µM) it was 0.336; in the assay with VX-702 + Luminespib (first compound 0.02 µM) it was 1; with VX-702 + Luminespib (first compound 0.2 µM), 1.04; with VX-702 + Luminespib (first compound 0.6325 µM), 0.992. Also, the relative viability with VX-702 + Luminespib (first compound 2 µM) turned out to be 1.07; in the assay with VX-702 + Phenformin (first compound 0.02 µM) it was 0.43; in the assay with VX-702 + Phenformin (first compound 0.2 µM), 0.457; in the assay with VX-702 + Phenformin (first compound 0.6325 µM) it was 0.453; in the assay with VX-702 + Phenformin (first compound 2 µM) it was 0.434.
Consider A549, for which the relative viability was 0.899 with Dabrafenib + Lapatinib (first compound 0.003 µM); 1.06 with Dabrafenib + Lapatinib (first compound 0.009487 µM); 1.07 with Dabrafenib + Lapatinib (first compound 0.03 µM); 1 with Dabrafenib + Lapatinib (first compound 0.09487 µM); 1.04 with Dabrafenib + Lapatinib (first compound 0.3 µM); 0.128 with VX-702 + Phenformin (first compound 0.02 µM). For the same cell line, the relative viability was determined as 0.19 in the assay with VX-702 + Phenformin (first compound 0.2 µM), 0.154 with VX-702 + Phenformin (first compound 0.6325 µM) and 0.137 with VX-702 + Phenformin (first compound 2 µM).
Consider A-427, for which the relative viability with Dabrafenib + Lapatinib (first compound 0.009487 µM) was 1.06; in the assay with Dabrafenib + Lapatinib (first compound 0.03 µM), 0.878; with Dabrafenib + Lapatinib (first compound 0.09487 µM), 0.793; with Dabrafenib + Lapatinib (first compound 0.3 µM) it was 1.05; with VX-702 + Palbociclib (first compound 0.02 µM), 0.541; with VX-702 + Palbociclib (first compound 0.2 µM), 0.52. Also, the relative viability with VX-702 + Palbociclib (first compound 0.6325 µM) was found to be 0.537; with VX-702 + Palbociclib (first compound 2 µM) it was 0.526; in the assay with VX-702 + Luminespib (first compound 0.02 µM), 0.715; with VX-702 + Luminespib (first compound 0.2 µM) it was 0.919; with VX-702 + Luminespib (first compound 0.6325 µM), 0.823; with VX-702 + Luminespib (first compound 2 µM), 0.774. The relative viability in the assay with VX-702 + Phenformin (first compound 0.02 µM) stood at 0.306; in the assay with VX-702 + Phenformin (first compound 0.2 µM), 0.303; in the assay with VX-702 + Phenformin (first compound 0.6325 µM), 0.395; in the assay with VX-702 + Phenformin (first compound 2 µM), 0.28.
As for ABC-1, the relative viability in the assay with Dabrafenib + Lapatinib (first compound 0.003 µM) turned out to be 1.14; in the assay with Dabrafenib + Lapatinib (first compound 0.009487 µM), 1.24; in the assay with Dabrafenib + Lapatinib (first compound 0.03 µM), 1.3; with Dabrafenib + Lapatinib (first compound 0.09487 µM) it was 1.2; in the assay with Dabrafenib + Lapatinib (first compound 0.3 µM), 1.05; in the assay with VX-702 + Palbociclib (first compound 0.02 µM) it was 0.569. The relative viability with VX-702 + Palbociclib (first compound 0.2 µM) was found to be 0.633; with VX-702 + Palbociclib (first compound 0.6325 µM), 0.826; with VX-702 + Palbociclib (first compound 2 µM), 0.8; with VX-702 + Luminespib (first compound 0.02 µM), 0.518; with VX-702 + Luminespib (first compound 0.2 µM), 0.48; with VX-702 + Luminespib (first compound 0.6325 µM), 0.567. The relative viability is 0.894 with VX-702 + Luminespib (first compound 2 µM); 0.214 with VX-702 + Phenformin (first compound 0.02 µM); 0.201 in the assay with VX-702 + Phenformin (first compound 0.2 µM); 0.229 with VX-702 + Phenformin (first compound 0.6325 µM); 0.228 in the assay with VX-702 + Phenformin (first compound 2 µM).
Take BEN: the relative viability with Dabrafenib + Lapatinib (first compound 0.009487 µM) turned out to be 0.805; with Dabrafenib + Lapatinib (first compound 0.09487 µM), 0.81; with Dabrafenib + Lapatinib (first compound 0.3 µM) it was 0.841; with VX-702 + Palbociclib (first compound 0.02 µM) it was 0.51; in the assay with VX-702 + Palbociclib (first compound 0.2 µM), 0.467; in the assay with VX-702 + Palbociclib (first compound 0.6325 µM), 0.413. Besides, the relative viability in the assay with VX-702 + Palbociclib (first compound 2 µM) turned out to be 0.514; with VX-702 + Luminespib (first compound 0.02 µM), 0.374; with VX-702 + Luminespib (first compound 0.2 µM), 0.221; in the assay with VX-702 + Luminespib (first compound 0.6325 µM), 0.49; with VX-702 + Luminespib (first compound 2 µM), 0.331; with VX-702 + Phenformin (first compound 0.02 µM), 0.263. The results for the relative viability with VX-702 + Phenformin (first compound 0.2 µM), in the assay with VX-702 + Phenformin (first compound 0.6325 µM) and with VX-702 + Phenformin (first compound 2 µM) were 0.252, 0.228 and 0.236, respectively.
Turning to CAL-12T, the relative viability with Dabrafenib + Lapatinib (first compound 0.003 µM) was determined as 0.709; in the assay with Dabrafenib + Lapatinib (first compound 0.009487 µM) it was 0.74; in the assay with Dabrafenib + Lapatinib (first compound 0.03 µM), 0.683; with Dabrafenib + Lapatinib (first compound 0.09487 µM), 0.639; in the assay with Dabrafenib + Lapatinib (first compound 0.3 µM) it was 0.789; in the assay with VX-702 + Palbociclib (first compound 0.02 µM) it was 0.427. The relative viability was found to be 0.507 with VX-702 + Palbociclib (first compound 0.2 µM); 0.496 with VX-702 + Palbociclib (first compound 0.6325 µM); 0.347 with VX-702 + Palbociclib (first compound 2 µM); 0.565 with VX-702 + Luminespib (first compound 0.02 µM); 0.574 with VX-702 + Luminespib (first compound 0.2 µM); 0.318 with VX-702 + Luminespib (first compound 0.6325 µM). The relative viability stood at 0.363 with VX-702 + Luminespib (first compound 2 µM); 0.699 with VX-702 + Phenformin (first compound 0.02 µM); 0.55 with VX-702 + Phenformin (first compound 0.2 µM); 0.609 in the assay with VX-702 + Phenformin (first compound 0.6325 µM); 0.632 in the assay with VX-702 + Phenformin (first compound 2 µM).
On to COR-L23, for which the relative viability in the assay with Dabrafenib + Lapatinib (first compound 0.003 µM) was found to be 0.984; in the assay with Dabrafenib + Lapatinib (first compound 0.009487 µM) it was 1.1; with Dabrafenib + Lapatinib (first compound 0.03 µM), 0.92; with Dabrafenib + Lapatinib (first compound 0.09487 µM), 0.874; in the assay with Dabrafenib + Lapatinib (first compound 0.3 µM), 0.913; in the assay with VX-702 + Palbociclib (first compound 0.02 µM) it was 0.271. Moreover, the relative viability in the assay with VX-702 + Palbociclib (first compound 0.2 µM) was 0.312; in the assay with VX-702 + Palbociclib (first compound 0.6325 µM) it was 0.323; in the assay with VX-702 + Palbociclib (first compound 2 µM) it was 0.341; with VX-702 + Luminespib (first compound 0.02 µM), 0.749; in the assay with VX-702 + Luminespib (first compound 0.2 µM), 0.719; with VX-702 + Luminespib (first compound 0.6325 µM), 0.688. For the same cell line, the relative viability in the assay with VX-702 + Luminespib (first compound 2 µM) was 0.761; with VX-702 + Phenformin (first compound 0.02 µM), 0.484; in the assay with VX-702 + Phenformin (first compound 0.2 µM), 0.492; with VX-702 + Phenformin (first compound 0.6325 µM), 0.437; with VX-702 + Phenformin (first compound 2 µM), 0.494.
Turning to COR-L 105, the relative viability came to 0.273 with Dabrafenib + Lapatinib (first compound 0.003 µM); 0.367 in the assay with Dabrafenib + Lapatinib (first compound 0.009487 µM); 0.3 with Dabrafenib + Lapatinib (first compound 0.03 µM); 0.375 with Dabrafenib + Lapatinib (first compound 0.09487 µM); 0.426 with Dabrafenib + Lapatinib (first compound 0.3 µM); 0.38 with VX-702 + Palbociclib (first compound 0.02 µM). Moreover, the relative viability with VX-702 + Palbociclib (first compound 0.2 µM) was 0.409; in the assay with VX-702 + Palbociclib (first compound 0.6325 µM), 0.432; with VX-702 + Palbociclib (first compound 2 µM), 0.38; in the assay with VX-702 + Luminespib (first compound 0.02 µM), 0.688; with VX-702 + Luminespib (first compound 0.2 µM) it was 0.715; with VX-702 + Luminespib (first compound 0.6325 µM), 0.78. Further, the relative viability is 0.91 in the assay with VX-702 + Luminespib (first compound 2 µM); 0.529 with VX-702 + Phenformin (first compound 0.02 µM); 0.478 in the assay with VX-702 + Phenformin (first compound 0.2 µM); 0.448 in the assay with VX-702 + Phenformin (first compound 0.6325 µM); 0.459 with VX-702 + Phenformin (first compound 2 µM).
With Calu-6, the relative viability with Dabrafenib + Lapatinib (first compound 0.003 µM) is 1.18; with Dabrafenib + Lapatinib (first compound 0.009487 µM), 1.03; with Dabrafenib + Lapatinib (first compound 0.03 µM), 0.911; with Dabrafenib + Lapatinib (first compound 0.09487 µM), 0.848; with Dabrafenib + Lapatinib (first compound 0.3 µM) it was 0.886.
As to ChaGo-K-1, the relative viability with VX-702 + Palbociclib (first compound 0.02 µM) was 0.942; with VX-702 + Palbociclib (first compound 0.2 µM), 0.881; in the assay with VX-702 + Palbociclib (first compound 0.6325 µM), 0.893; with VX-702 + Palbociclib (first compound 2 µM), 0.946; with VX-702 + Luminespib (first compound 0.02 µM) it was 0.657; with VX-702 + Luminespib (first compound 0.2 µM) it was 0.46. The relative viability was 0.586 with VX-702 + Luminespib (first compound 0.6325 µM); 0.678 with VX-702 + Luminespib (first compound 2 µM); 0.528 with VX-702 + Phenformin (first compound 0.02 µM); 0.462 with VX-702 + Phenformin (first compound 0.2 µM); 0.506 with VX-702 + Phenformin (first compound 0.6325 µM); 0.499 with VX-702 + Phenformin (first compound 2 µM).
